In article PMC11354909, “Preclinical Evaluation of Soluble Epoxide Hydrolase Inhibitor AMHDU against Neuropathic Pain” (International Journal of Molecular Sciences, 2024):
Several values for one entry are separate records, joined by “and”; a condition that tells them apart may be missing. Equal entries are not always repeated. Entries after “also recorded” stand apart in the source; their conditions may differ. Where two headings read alike, the source gives them in different places.

Experiments:
rat paw edema model = assay: Freund's adjuvant rat paw edema model (anti-inflammatory activity); format: in vivo; settings: for effect on paw edema (reduction of exudative reaction): day 4
[1] = tested on: STZ-rat neuropathic pain model; assay: Tactile allodynia (von Frey) in streptozotocin diabetic polyneuropathy; format: in vivo
Description: To evaluate the effect of the compound on the development of neuropathic pain, tactile hyperalgesia was evaluated in diabetic polyneuropathy in rats with 2-week streptozotocin-induced diabetes (35 mg/kg intraperitoneally). Only animals with developed allodynia and hyperalgesia were taken into the experiment, with 50% pain response indices not exceeding 6 g. Groups were formed randomly (n = 6). Tactile allodynia in rats was assessed by registering the pressure at which the animals jerked the right hind paw, avoiding exposure to stimuli of increasing degree. VonFrey hairs, which are 20 monofilaments of nylon filaments of different diameters attached to plastic handles, were applied to the right hind paw in turn from below through the mesh. The comparison drug gabapentin as well as the test compound AMHDU dissolved in 10% DMSO was administered intraperitoneally in 10 mg/kg dose 60 min. before the experiment. An equivalent volume of solvent was administered to control animals. The experiment was started with a monofilament labeled 4.31. If there was no response after 5 incidents of touching, the monofilament was successively changed to the next monofilament with higher strength. […] The 50% threshold of paw retraction during successive increases and decreases in stimulus strength was determined using the UP-AND-DOWN method.

[2] = target: soluble epoxide hydrolase (sEH); parameters: method as in PMID 24685540; settings: slow tight binding sEH inhibitor; cited from earlier work
[3] = tested on: pain threshold of inflamed paw, adjuvant inflammation; assay: Randall–Selitto test in adjuvant inflammation (analgesic activity); format: in vivo, rat
[4] = Pharmacokinetic study, intraperitoneal injection; format: in vivo, male Swiss–Webster mice
Description: Animal experiments were approved by the Animal Use and Care Committee of University of California, Davis. Compounds were formulated in 5% EtOH, 95% PEG400 at a concentration of 0.25 mg/mL. […] […] For compound detection in plasma, 10 µL whole blood was sampled by tail nick and transferred immediately to 50 µL water containing 0.1% EDTA. Samples were extracted as previously described and stored at −20 °C until analysis. Samples were analysed by LC-MS/MS on an Agilent SL 1200 series LC system (Agilent, Palo Alto, CA, USA) connected to a 4000 Qtrap mass spectrometer (Applied Biosystems Instrument Corporation, Foster City, CA, USA) with Turbo V ion source. Liquid chromatography was performed on a Kinetex R© C18 column (100 × 2.1 mm, 1.7 μm). The mass spectrometer was operated in positive modes with primary MRM scan of 499.377/143.153 and secondary scans of 499.377/149.190 and 499.377/166.204. Peaks were integrated using Analyst software v 1.6.3 (Ab Sciex, Washington, DC, USA) and quantified against a standard curve as previously described.

[5] = Acute oral toxicity (OECD test No. 423); settings: for Adrenal glands mass ratio to whole body weight / Brain mass ratio to whole body weight / Heart mass ratio to whole body weight / Kidneys mass ratio to whole body weight / Liver mass ratio to whole body weight / Lungs mass ratio to whole body weight / Ovaries mass ratio to whole body weight / Spleen mass ratio to whole body weight / Thymus mass ratio to whole body weight: 2 weeks after single intragastric dose, m ± SD
Description: The acute toxicity of the substance by intragastric administration to female outbred rats was studied; the toxicity class, tolerated, toxic, lethal doses and character of toxic effect were determined according to the OECD test No. 423.
Experiments were performed on sexually mature laboratory white mongrel female rats, divided into experimental and control groups. Experimental animals were administered the AMHDU substance diluted in 50% dimethyl sulfoxide solution in the recommended GOST 32644-2014 initial dose of 300 mg/kg (n = 6), as well as the maximum dose of 2000 mg/kg (n = 3) in the maximum allowable volume of 20 mL/kg once intra-gastrically. Control animals (n = 6) were injected with dimethyl sulfoxide diluted 1:1 with purified water at volumes identical to those of the experimental animals. The animals were monitored for 2 weeks, continuously for the first 4 h after injection. Routine necropsy of all surviving animals was performed on day 15.

[6] = individual animals No. 1-4, i.p., table dose 1 mg/kg, 1 mg/kg

Cc1ccc(-c2cc(C(F)(F)F)nn2-c2ccc(S(N)(=O)=O)cc2)cc1 [celecoxib, reference compound]
effect on paw edema (reduction of exudative reaction) (rat paw edema model; celecoxib 10 mg/kg i.p. 2 times a day for 4 days): 51%

C[C@@H]1C[C@H]2[C@@H]3CCC4=CC(=O)C=C[C@]4(C)[C@@]3(F)[C@@H](O)C[C@]2(C)[C@@]1(O)C(=O)CO [dexamethasone, reference compound]
effect on paw edema (reduction of exudative reaction) (rat paw edema model; dexamethasone 5 mg/kg i.p. 2 times a day for 4 days): 65%

O=C(NCCCCCCNC(=O)NCC12CC3CC(CC(C3)C1)C2)NCC12CC3CC(CC(C3)C1)C2 [AMHDU, 1,1′-(hexane-1,6-diyl)bis(3-((adamantan-1-yl)methyl)urea)]
analgesic activity compared with gabapentin ([1]; 10 mg/kg i.p. both drugs): comparable to standard of care gabapentin | pain threshold relative to the control group ([1]; 10 mg/kg i.p., 60 min before the experiment): 1.5 times | IC50 [2]: 0.5 nM | Ki [2]: 3.1 nM | effect on the volume of the affected limb (paw edema) (rat paw edema model; 5 mg/kg i.p. 2 times a day for 4 days, day 4 after adjuvant): no significant effect | reduction of the primary exudative reaction (paw edema) (rat paw edema model; 30 mg/kg i.p. 2 times a day for 4 days, day 4 after adjuvant): no statistically significant reduction | anti-inflammatory effect (overall conclusion) (rat paw edema model; 5 and 30 mg/kg i.p.): lacks anti-inflammatory activity; also recorded: negligible anti-inflammatory effect | effect on pain threshold ([3]; 5 mg/kg i.p. 2 times a day for 4 days): no significant suppression of the pain threshold | increase of paw-pulling threshold ([3]; 30 mg/kg i.p. 2 times a day for 4 days): 38% | analgesic activity compared with reference drugs ([3]; AMHDU 30 mg/kg i.p. vs celecoxib 10 mg/kg, dexamethasone 5 mg/kg): superior to both dexamethasone and celecoxib | compound left in the bloodstream ([4]; 4 h after injection, i.p. 1.25 mg/kg): none is left in the bloodstream | AUC ([4]; Swiss-Webster, mouse, whole blood, ip, i.p. 1.25 mg/kg, male mice): 26 ng·h/mL | half-life ([4]; Swiss-Webster, mouse, whole blood, ip, i.p. 1.25 mg/kg, male mice, read-out: half-life (Thalf)): ~0.167 h | AUClast [4, 6]: 24 ng·h/mL and 35 ng·h/mL and 31 ng·h/mL and 16 ng·h/mL | Cmax [4, 6]: 24.32 ng/mL and 53.00 ng/mL and 31.93 ng/mL and 30.86 ng/mL | MRT [4, 6]: 1.51 h and 1.04 h and 1.08 h and 0.55 h | Thalf [4, 6]: 0.18 h and 0.16 h and 0.13 h and 0.15 h | Tmax [4, 6]: 2.0 h and 0.5 h | Thalf ([4]; m ± SE of 4 mice, i.p.): 0.16 ± 0.02 h | AUC(0-t) ([4]; male, Swiss-Webster, mouse, whole blood, ip, 1.25 mg/kg, m ± SE of 4 mice): 26.4 ± 8.6 ng·h/mL | Cmax ([4]; male, Swiss-Webster, mouse, whole blood, ip, 1.25 mg/kg, m ± SE of 4 mice, i.p., read-out: Cmax): 35 ± 12.4 ng/mL | MRT ([4]; male, Swiss-Webster, mouse, whole blood, ip, 1.25 mg/kg, m ± SE of 4 mice, i.p., read-out: MRT): ~1 h | Tmax ([4]; male, Swiss-Webster, mouse, whole blood, ip, 1.25 mg/kg, mean of 4 mice, i.p., read-out: Tmax): 1 h | Adrenal glands mass ratio, change compared to control group ([5]; 300 mg/kg, 2 weeks): –8.5% | Brain mass ratio, change compared to control group ([5]; 300 mg/kg, 2 weeks): –0.1% | Heart mass ratio, change compared to control group ([5]; 300 mg/kg, 2 weeks): –6.4% | Kidneys mass ratio, change compared to control group ([5]; 300 mg/kg, 2 weeks): –3.1% | Liver mass ratio, change compared to control group ([5]; 300 mg/kg, 2 weeks): 2.1% | Lungs mass ratio, change compared to control group ([5]; 300 mg/kg, 2 weeks): –3.5% | Ovaries mass ratio, change compared to control group ([5]; 300 mg/kg, 2 weeks): –1.0% | Spleen mass ratio, change compared to control group ([5]; 300 mg/kg, 2 weeks): 0.5% | Thymus mass ratio, change compared to control group ([5]; 300 mg/kg, 2 weeks): –4.1% | Adrenal glands mass ratio to whole body weight ([5]; 300 mg/kg): 0.04 ± 0.004% | Brain mass ratio to whole body weight ([5]; 300 mg/kg): 0.72 ± 0.02% | Heart mass ratio to whole body weight ([5]; 300 mg/kg): 0.33 ± 0.01% | Kidneys mass ratio to whole body weight ([5]; 300 mg/kg): 0.62 ± 0.02% | Liver mass ratio to whole body weight ([5]; 300 mg/kg): 3.03 ± 0.12% | Lungs mass ratio to whole body weight ([5]; 300 mg/kg): 0.60 ± 0.04% | Ovaries mass ratio to whole body weight ([5]; 300 mg/kg): 0.05 ± 0.003% | Spleen mass ratio to whole body weight ([5]; 300 mg/kg): 0.48 ± 0.01% | Thymus mass ratio to whole body weight ([5]; 300 mg/kg): 0.17 ± 0.03% | Adrenal glands mass ratio, change compared to control group ([5]; 2000 mg/kg, 2 weeks): –14.4% | Brain mass ratio, change compared to control group ([5]; 2000 mg/kg, 2 weeks): –0.3% | Heart mass ratio, change compared to control group ([5]; 2000 mg/kg, 2 weeks): –10.4% | Kidneys mass ratio, change compared to control group ([5]; 2000 mg/kg, 2 weeks): 0.4% | Liver mass ratio, change compared to control group ([5]; 2000 mg/kg, 2 weeks): –6.4% | Lungs mass ratio, change compared to control group ([5]; 2000 mg/kg, 2 weeks): –10.7% | Ovaries mass ratio, change compared to control group ([5]; 2000 mg/kg, 2 weeks): 18.3% | Spleen mass ratio, change compared to control group ([5]; 2000 mg/kg, 2 weeks): –9.9% | Thymus mass ratio, change compared to control group ([5]; 2000 mg/kg, 2 weeks): –11.0% | Adrenal glands mass ratio to whole body weight ([5]; 2000 mg/kg): 0.03 ± 0.003% | Brain mass ratio to whole body weight ([5]; 2000 mg/kg): 0.72 ± 0.02% | Heart mass ratio to whole body weight ([5]; 2000 mg/kg): 0.32 ± 0.01% | Kidneys mass ratio to whole body weight ([5]; 2000 mg/kg): 0.64 ± 0.03% | Liver mass ratio to whole body weight ([5]; 2000 mg/kg): 2.77 ± 0.41% | Lungs mass ratio to whole body weight ([5]; 2000 mg/kg): 0.56 ± 0.03% | Ovaries mass ratio to whole body weight ([5]; 2000 mg/kg): 0.06 ± 0.01% | Spleen mass ratio to whole body weight ([5]; 2000 mg/kg): 0.43 ± 0.02% | Thymus mass ratio to whole body weight ([5]; 2000 mg/kg): 0.16 ± 0.01% | necropsy: architectonics of internal organs location ([5]; day 15 after intragastric 300 and 2000 mg/kg): no pathological changes | toxicity class according to the GHS classification ([5]; female, outbred white mongrel, rat, in vivo, 2 weeks): class 5 | LD50 at 2 weeks ([5]; female, outbred white mongrel, rat, in vivo, po, LD50 (acute oral toxicity), intragastric, female rats): > 2000 mg/kg | LD50 (acute oral toxicity) ([5]; intragastric, female rats): 2000 to 5000 mg/kg | death in early and distant periods of observation ([5]; single intragastric limit dose 2000 mg/kg, 2 weeks observation): does not contribute to death
